Measurements from patent publication US20220257583A1, “Compositions and Methods for the Treatment of Intracranial Diseases” (Duke University, priority 2019, published 2022).

What was measured:
[1] = biological target: T1, β-arrestin 2 recruitment to activated β2V2R (Homo sapiens, UniProt P32121); experiment: DiscoveRx β-arrestin 2 recruitment assay (β2V2R, isoproterenol stimulation); format: cell-based; settings: 25 minutes pretreatment
T1 construct: host or cells: U2OS
Experimental: FIG. 13: The first 40 initial hits from the screening of a structurally diverse, drug-like compound (DDLC) library containing more than 3,500 unique molecules with binding activity against purified β-arrestin 2 were evaluated for β-arrestin 2 recruitment by DiscoveRx assay. DiscoveRx cells expressing chimeric β2-adrenergic receptor (β2AR) with C-terminal tail from vasopressin receptor 2 (β2V2R) that is known to bind β-arrestin 2 very tightly were employed in this assay. The DiscoveRx cells were pretreated with candidate compounds at 50 μM or DMSO (control) for 25 minutes followed by stimulation with isoproterenol (10 nM). Compound B29 inhibits more than 75% of β-arrestin 2 activity (red-dashed rectangle) induced by isoproterenol which is a receptor agonist (red bar graph).
FIG. 14: β-arrestin 2 recruitment to activated β2V2R. Testing B29 further, the DiscoveRx cells were pretreated with compound B29 at 1, 10, 50 μM or DMSO (control) for 25 minutes followed by stimulation with isoproterenol at various concentrations.
FIG. 20 is a graphic representation showing the effect of putative βarr2 binding compounds (21 hits) on βarr2 recruitment to agonist activated GPCR. DiscoveRx-U2OS cells exogenously expressing βarr2 and β2V2R were treated with each putative βarrestin binding compound at 50 μM for 30 min and then stimulated with agonist isoproterenol (10 nM) to induce recruitment of βarr. […]

[2] = test system: S1P1 on T cells; experiment: S1P1 expression on T cells exposed to compound; format: cell-based
[3] = test system: T-cells in IC CT2A-bearing mice; experiment: Bone marrow and blood T-cell counts in IC CT2A-bearing mice; format: in vivo; settings: intraperitoneally every 3 days (Days 3-18), counts 18 days after implantation
Excerpt: FIGS. 6F-6J: FIG. 6F: Representative flow cytometry plot depicting the frequency of S1P1 on the surface of T-cells in the bone marrow of C57BL/6 mice and S1P1 KI bearing IC CT2A tumor. FIG. 6G: S1P1 KI mice were implanted with IC CT2A tumors and treated with anti (α)-PD-1, 4-1BB agonist, or the combination of both (n=8 per group). FIG. 6H and FIG. 6I: Bone marrow (FIG. 6H) and blood (FIG. 6I) T-cell counts in n=8 control mice and n=8 IC CT2A-bearing mice administered control treatment or G-CSF intraperitoneally every 3 days following tumor implantation (Days 3-18). Counts were assessed 18 days following tumor implantation. FIG. 6J: IC CT2A IC mice were administered G-CSF, 4-1BB agonist, or the combination regimen of both drugs (n=8 per group). […] Data in FIG. 6H and FIG. 6I are shown as mean±s.e.m. P values and were determined by two-tailed, unpaired Student's t-test. Survivals in FIG. 6G and FIG. 6J were assessed by two-tailed generalized Wilcoxon test. P values for overall comparison are depicted. […]
Spleen, thymus, cervical lymph nodes, and long bones of the legs (femur and tibia) were collected at defined and/or humane endpoints, in accordance with protocol. […] Briefly, tissues were processed in RPMI, minced into single cell suspensions, cell-strained, counted, stained with antibodies, and analyzed via flow cytometry. […]

[4] = test system: intracranial CT2A glioma; experiment: Survival of mice bearing intracranial CT2A glioma; format: in vivo; settings: IC CT2A mice, monotherapy
Experimental: FIGS. 6A-6E: Hindering S1P1 internalization abrogates T-cell sequestration in bone marrow. FIG. 6A: Relative sequestration of adoptively transferred CFSE-labeled T-cells within the bone marrow of CT2A IC recipient mice at 2 h (left) or 24 h (right) after transfer. As indicated, transferred cells were splenocytes either from control C57BL/6 donors (control) or from S1P1 stabilized knock-in (S1P1 KI) donors (n=5 recipient mice per group). […] FIG. 6B: T-cell counts in the bone marrow of n=10 intracranial CT2A-bearing wild-type C57BL/6 or n=11 S1P1 KI mice. Counts were assessed at 18 d following tumor implantation and are shown relative to baseline counts inn=6 tumor-naïve control wild-type or n=6 tumor-naïve S1P1 KI mice. Cumulative data from three experiments are depicted in FIG. 6B and FIG. 6C, Intracranial CT2A tumors were harvested from n=6 wild-type C57BL/6 (WT) or n=6 S1P1 KI mice at 18 d following tumor implantation. TILs were assessed by flow cytometry and the number of total T-cells per gram of tumor quantified. FIG. 6D: The frequency of activated effector) (CD44^hiCD62L^lo) T-cells in intracranial CT2A tumors from the same n=6 wild-type C57BL/6 (WT) or n=6 S1P1 KI mice in FIG. 6C was also quantified. […] P values in and were determined by two-tailed, unpaired Student's t-test. Survival in FIG. 6E was assessed by two-tailed, generalized Wilcoxon test. […]

T1 sequence (P32121 whole entry): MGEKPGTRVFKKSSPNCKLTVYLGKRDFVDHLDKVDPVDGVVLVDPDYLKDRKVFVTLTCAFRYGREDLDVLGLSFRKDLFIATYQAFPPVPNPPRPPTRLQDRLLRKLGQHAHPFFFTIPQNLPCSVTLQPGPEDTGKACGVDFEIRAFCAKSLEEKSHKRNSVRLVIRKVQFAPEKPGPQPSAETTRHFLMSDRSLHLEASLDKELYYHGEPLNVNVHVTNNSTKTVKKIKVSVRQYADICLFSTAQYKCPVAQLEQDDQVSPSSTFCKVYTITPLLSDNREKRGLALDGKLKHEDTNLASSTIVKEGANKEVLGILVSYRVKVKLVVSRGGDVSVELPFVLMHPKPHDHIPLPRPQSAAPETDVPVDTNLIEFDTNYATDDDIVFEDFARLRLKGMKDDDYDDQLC

COc1cc(Cc2nccc3cc(OC)c(OC)cc23)c(C(C)=O)cc1OC [Compound B29, 1-(2-((6,7-dimethoxyisoquinolin-1-yl)methyl)-4,5-dimethoxyphenyl)ethan-1-one]
inhibition at 50 µM ([1]; compound 50 μM, isoproterenol 10 nM, read-out: inhibition of β-arrestin 2 activity induced by isoproterenol): > 75%
effect on isoproterenol titration curves of β-arrestin 2 recruitment ([1]; compound at 1, 10, 50 μM, isoproterenol at various concentrations): shifts the potency of agonist rightward and decreases maximal response in a dose dependent fashion

CN(C)c1n/c(=N/Cc2ccco2)ss1 [Compound C30, (Z)-3-((furan-2-ylmethyl)imino)-N,N-dimethyl-3H-1,2,4-dithiazol-5-amine]
S1P1 expression level on T cells ([2]; higher concentrations of compound): higher levels of S1P1 expression
ability to inhibit BARR ([2]; initially screened compound, FIG. 12): inhibit BARR

B1: G-CSF: granulocyte colony-stimulating factor, administered intraperitoneally every 3 days (protein, UniProt P09919 31-207, looked up)
Granulocyte …: TPLGPASSLPQSFLLKCLEQVRKIQGDGAALQEKLVSECATYKLCHPEELVLLGHSLGIPWAPLSSCPSQALQLAGCLSQLHSGLFLYQGLLQALEGISPELGPTLDTLQLDVADFATTIWQQMEELGMAPALQPTQGAMPAFASAFQRRAGGVLVASHLQSFLEVSYRVLRHLAQP
T-cell lymphopenia (blood T-cell counts) [3]: reversed
bone marrow T-cell counts [3]: decreased
survival [4]: did not to consistently impact survival
